The values that follow come from patent publication US20100130477A1, “Spirocyclobutyl Piperidine Derivatives” (ASTRAZENECA AB, priority 2008, published 2010).

Each structure is given as a SMILES string.

This assay deals with T1, human Histamine H3 receptor (hH3R) (Homo sapiens, UniProt Q9Y5N1).
T1 construct: expressed in transfected cells; host or cells: CHO cells (Chinese Hamster Ovary); membranes
T1 sequence (Q9Y5N1 whole entry): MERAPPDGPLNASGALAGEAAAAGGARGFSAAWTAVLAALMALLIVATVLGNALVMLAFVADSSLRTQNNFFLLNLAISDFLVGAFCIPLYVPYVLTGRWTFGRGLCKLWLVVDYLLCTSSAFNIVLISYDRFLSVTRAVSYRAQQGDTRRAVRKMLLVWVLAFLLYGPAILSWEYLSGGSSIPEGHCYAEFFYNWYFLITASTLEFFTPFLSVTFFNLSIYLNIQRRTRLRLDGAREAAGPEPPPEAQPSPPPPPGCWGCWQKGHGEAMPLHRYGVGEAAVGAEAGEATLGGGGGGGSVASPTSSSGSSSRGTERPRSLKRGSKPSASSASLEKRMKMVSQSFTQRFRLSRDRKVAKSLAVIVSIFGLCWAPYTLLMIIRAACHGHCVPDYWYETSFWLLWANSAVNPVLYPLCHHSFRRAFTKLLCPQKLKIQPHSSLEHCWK
Kind of assay: GTPγS Binding Assay (antagonist activity, [35S]GTPγS, (R)-α-methyl histamine 30 nM). It is filed as biochemical. Conditions: membranes from CHO cells expressing hH3R, 90 minutes at room temperature. As to the method:
Guanosine 5′-O-(3-[^35S]thio)triphosphate [GTPγS] Binding Assay
A GTPγS binding assay can be used to investigate antagonist properties of compounds in CHO cells (Chinese Hamster Ovary) transfected with human Histamine H3 receptor (hH3R). Membranes from CHO cells expressing hH3R (10 μg/well) are diluted in GTPγS assay buffer (20 mM Hepes, 10 mM MgCl2, 100 mM NaCl, pH 7.4) and preincubated with saponine (3 μg/ml), GDP (10 μM) and PVT-WGA SPA beads (125 μg/well) (Amersham) for 30 minutes. To determine antagonist activity, (R)-α-methyl histamine (30 nM) is added in 96 well SPA plate with [^35S]GTPγS (0.2 nM) and various concentration of H3R antagonists. The GTPγS binding assay is started with addition of the mixture membrane/saponine/GDP and incubated for 90 minutes at room temperature. The amount of bound [^35S]GTPγS is determined by using the MicroBeta Trilux counter (PerkinElmer). The percentage of [^35S]GTPγS bound in each sample is calculated as a percentage of that bound control sample incubated in absence of H3 antagonist. Duplicate determinations are obtained for each concentration, and the data are analyzed using ExcelFit4 to obtain the IC50.
Regarding `O=C(C1CC2(CCN(c3cccnc3)CC2)C1)N1CCN(C2CCC2)CC1` [Example 1, (4-cyclobutylpiperazin-1-yl)(7-(pyridin-3-yl)-7-azaspiro[3.5]nonan-2-yl)methanone], the IC50 (commonly the concentration that gives 50% inhibition) was found to be 17.8 nM.
The same measure for `O=C(C1CC2(CCN(c3ccccn3)CC2)C1)N1CCN(C2CCC2)CC1` [Example 2, (4-cyclobutylpiperazin-1-yl)(7-(pyridin-2-yl)-7-azaspiro[3.5]nonan-2-yl)methanone]: 27 nM.
The same measure for `O=C(C1CC2(CCN(c3ccccc3)CC2)C1)N1CCN(C2CCC2)CC1` [Example 3, (4-cyclobutylpiperazin-1-yl)(7-phenyl-7-azaspiro[3.5]nonan-2-yl)methanone]: 72.9 nM; for `CC(C)S(=O)(=O)N1CCC2(CC1)CC(C(=O)N1CCN(C3CCC3)CC1)C2` [Example 4, (4-cyclobutylpiperazin-1-yl)(7-(isopropylsulfonyl)-7-azaspiro[3.5]nonan-2-yl)methanone]: 15.4 nM; for `CS(=O)(=O)N1CCC2(CC1)CC(C(=O)N1CCN(C3CCC3)CC1)C2` [Example 5, (4-cyclobutylpiperazin-1-yl)(7-(methylsulfonyl)-7-azaspiro[3.5]nonan-2-yl)methanone]: 7.29 nM.
The same measure for `O=C(C1CC2(CCN(S(=O)(=O)c3ccccc3)CC2)C1)N1CCN(C2CCC2)CC1` [Example 6, (4-cyclobutylpiperazin-1-yl)(7-(phenylsulfonyl)-7-azaspiro[3.5]nonan-2-yl)methanone]: 6.56 nM; for `O=C(C1CCCCC1)N1CCC2(CC1)CC(C(=O)N1CCN(C3CCC3)CC1)C2` [Example 7, (4-cyclobutylpiperazin-1-yl)(7-(cyclohexanecarbonyl)-7-azaspiro[3.5]nonan-2-yl)methanone]: 52.9 nM.
`CCc1cnccc1C(=O)N1CCC2(CC1)CC(C(=O)N1CCN(C3CCC3)CC1)C2` [Example 8, (4-cyclobutylpiperazin-1-yl)(7-(3-ethylisonicotinoyl)-7-azaspiro[3.5]nonan-2-yl)methanone]: the IC50 stood at 22.9 nM. Against the preceding molecule, the IC50 is about 2.3-fold lower.
The same measure for `O=C(c1cncc(Cl)c1)N1CCC2(CC1)CC(C(=O)N1CCN(C3CCC3)CC1)C2` [Example 9, (7-(5-chloronicotinoyl)-7-azaspiro[3.5]nonan-2-yl)(4-cyclobutylpiperazin-1-yl)methanone]: 20.8 nM.
The same measure for `O=C(c1cnccc1Cl)N1CCC2(CC1)CC(C(=O)N1CCN(C3CCC3)CC1)C2` [Example 10, (7-(4-chloronicotinoyl)-7-azaspiro[3.5]nonan-2-yl)(4-cyclobutylpiperazin-1-yl)methanone]: 29.6 nM.
`Cc1ccnc(C)c1C(=O)N1CCC2(CC1)CC(C(=O)N1CCN(C3CCC3)CC1)C2` [Example 11, (4-cyclobutylpiperazin-1-yl)(7-(2,4-dimethylnicotinoyl)-7-azaspiro[3.5]nonan-2-yl)methanone] gave an IC50 of 16.9 nM. This IC50 is about 1.8-fold lower than that of the molecule before.
The same measure for `Cc1ccc(C(=O)N2CCC3(CC2)CC(C(=O)N2CCN(C4CCC4)CC2)C3)cn1` [Example 12, (4-cyclobutylpiperazin-1-yl)(7-(6-methylnicotinoyl)-7-azaspiro[3.5]nonan-2-yl)methanone]: 26.2 nM; for `Cc1ncccc1C(=O)N1CCC2(CC1)CC(C(=O)N1CCN(C3CCC3)CC1)C2` [Example 13, (4-cyclobutylpiperazin-1-yl)(7-(2-methylnicotinoyl)-7-azaspiro[3.5]nonan-2-yl)methanone]: 28.1 nM.
The same measure for `Cc1ccncc1C(=O)N1CCC2(CC1)CC(C(=O)N1CCN(C3CCC3)CC1)C2` [Example 14, (4-cyclobutylpiperazin-1-yl)(7-(4-methylnicotinoyl)-7-azaspiro[3.5]nonan-2-yl)methanone]: 41.5 nM; for `N#Cc1ccc(C(=O)N2CCC3(CC2)CC(C(=O)N2CCN(C4CCC4)CC2)C3)nc1` [Example 15, 6-(2-(4-cyclobutylpiperazine-1-carbonyl)-7-azaspiro[3.5]nonane-7-carbonyl)nicotinonitrile]: 31.3 nM; for `O=C(c1ncc(F)cc1F)N1CCC2(CC1)CC(C(=O)N1CCN(C3CCC3)CC1)C2` [Example 16, (4-cyclobutylpiperazin-1-yl)(7-(3,5-difluoropicolinoyl)-7-azaspiro[3.5]nonan-2-yl)methanone]: 80.4 nM.
The same measure for `O=C(c1cc(Cl)ccn1)N1CCC2(CC1)CC(C(=O)N1CCN(C3CCC3)CC1)C2` [Example 17, (7-(4-chloropicolinoyl)-7-azaspiro[3.5]nonan-2-yl)(4-cyclobutylpiperazin-1-yl)methanone]: 35 nM.
For `Cc1cccc(C(=O)N2CCC3(CC2)CC(C(=O)N2CCN(C4CCC4)CC2)C3)n1` [Example 18, (4-cyclobutylpiperazin-1-yl)(7-(6-methylpicolinoyl)-7-azaspiro[3.5]nonan-2-yl)methanone], the IC50 is 54 nM. Compared with the last molecule, the IC50 is about 1.5-fold higher.
The same measure for `Cc1cccnc1C(=O)N1CCC2(CC1)CC(C(=O)N1CCN(C3CCC3)CC1)C2` [Example 19, (4-cyclobutylpiperazin-1-yl)(7-(3-methylpicolinoyl)-7-azaspiro[3.5]nonan-2-yl)methanone]: 24.5 nM; for `O=C(c1ccccn1)N1CCC2(CC1)CC(C(=O)N1CCN(C3CCC3)CC1)C2` [Example 20, (4-cyclobutylpiperazin-1-yl)(7-picolinoyl-7-azaspiro[3.5]nonan-2-yl)methanone]: 48 nM.
The same measure for `O=C(c1cccnc1)N1CCC2(CC1)CC(C(=O)N1CCN(C3CCC3)CC1)C2` [Example 21, (4-cyclobutylpiperazin-1-yl)(7-nicotinoyl-7-azaspiro[3.5]nonan-2-yl)methanone]: 18.2 nM.
The same measure for `O=C(c1ccncc1)N1CCC2(CC1)CC(C(=O)N1CCN(C3CCC3)CC1)C2` [Example 22, (4-cyclobutylpiperazin-1-yl)(7-isonicotinoyl-7-azaspiro[3.5]nonan-2-yl)methanone]: 12.6 nM.
With `Cc1cnccc1C(=O)N1CCC2(CC1)CC(C(=O)N1CCN(C3CCC3)CC1)C2` [Example 23, (4-cyclobutylpiperazin-1-yl)(7-(3-methylisonicotinoyl)-7-azaspiro[3.5]nonan-2-yl)methanone], the IC50 amounted to 6.06 nM.
The same measure for `Cc1cc(C(=O)N2CCC3(CC2)CC(C(=O)N2CCN(C4CCC4)CC2)C3)ccn1` [Example 24, (4-cyclobutylpiperazin-1-yl)(7-(2-methylisonicotinoyl)-7-azaspiro[3.5]nonan-2-yl)methanone]: 21.8 nM; for `Cc1cncc(C(=O)N2CCC3(CC2)CC(C(=O)N2CCN(C4CCC4)CC2)C3)c1` [Example 25, (4-cyclobutylpiperazin-1-yl)(7-(5-methylnicotinoyl)-7-azaspiro[3.5]nonan-2-yl)methanone]: 12.5 nM.
The same measure for `COc1cc(C(=O)N2CCC3(CC2)CC(C(=O)N2CCN(C4CCC4)CC2)C3)ccn1` [Example 26, (4-cyclobutylpiperazin-1-yl)(7-(2-methoxyisonicotinoyl)-7-azaspiro[3.5]nonan-2-yl)methanone]: 23.8 nM.
The same measure for `O=C(Cc1cccnc1)N1CCC2(CC1)CC(C(=O)N1CCN(C3CCC3)CC1)C2` [Example 27, 1-(2-(4-cyclobutylpiperazine-1-carbonyl)-7-azaspiro[3.5]nonan-7-yl)-2-(pyridin-3-yl)ethanone]: 12.6 nM; for `O=C(Cc1ccncc1)N1CCC2(CC1)CC(C(=O)N1CCN(C3CCC3)CC1)C2` [Example 28, 1-(2-(4-cyclobutylpiperazine-1-carbonyl)-7-azaspiro[3.5]nonan-7-yl)-2-(pyridin-4-yl)ethanone]: 13.8 nM.
For the molecule `O=C(CCc1ccncc1)N1CCC2(CC1)CC(C(=O)N1CCN(C3CCC3)CC1)C2` [Example 29, 1-(2-(4-cyclobutylpiperazine-1-carbonyl)-7-azaspiro[3.5]nonan-7-yl)-3-(pyridin-4-yl)propan-1-one], the IC50 came to 19.7 nM.
The same measure for `O=C(c1ccccc1)N1CCC2(CC1)CC(C(=O)N1CCN(C3CCC3)CC1)C2` [Example 30, (7-benzoyl-7-azaspiro[3.5]nonan-2-yl)(4-cyclobutylpiperazin-1-yl)methanone]: 48.4 nM; for `N#Cc1cccc(C(=O)N2CCC3(CC2)CC(C(=O)N2CCN(C4CCC4)CC2)C3)c1` [Example 31, 3-(2-(4-cyclobutylpiperazine-1-carbonyl)-7-azaspiro[3.5]nonane-7-carbonyl)benzonitrile]: 24.5 nM.
The same measure for `O=C(Nc1ccccc1)N1CCC2(CC1)CC(C(=O)N1CCN(C3CCC3)CC1)C2` [Example 32, 2-(4-cyclobutylpiperazine-1-carbonyl)-N-phenyl-7-azaspiro[3.5]nonane-7-carboxamide]: 47.7 nM.
The same measure for `CC(C)N1CCN(C(=O)C2CC3(CCN(S(C)(=O)=O)CC3)C2)CC1` [Example 33, (4-isopropylpiperazin-1-yl)(7-(methylsulfonyl)-7-azaspiro[3.5]nonan-2-yl)methanone]: 33.9 nM; for `Cc1cc(C(=O)N2CCC3(CC2)CC(C(=O)N2CCN(C(C)C)CC2)C3)ccn1` [Example 34, (4-isopropylpiperazin-1-yl)(7-(2-methylisonicotinoyl)-7-azaspiro[3.5]nonan-2-yl)methanone]: 66.4 nM; for `CC(C)N1CCN(C(=O)C2CC3(CCN(C(=O)c4ccncc4)CC3)C2)CC1` [Example 35, (7-isonicotinoyl-7-azaspiro[3.5]nonan-2-yl)(4-isopropylpiperazin-1-yl)methanone]: 61.9 nM.
